Assay results taken from US9006464B2, “Substituted cyclopentanes having prostaglandin activity” (Allergan, Inc., priority 2007, dated 2015).

What was measured:
TP = target: T1, TP (Homo sapiens, UniProt P21731); assay: Other receptors Ca2+ assay, TP; type: cell-based; conditions: TP receptor
T1 sequence (P21731 1-343): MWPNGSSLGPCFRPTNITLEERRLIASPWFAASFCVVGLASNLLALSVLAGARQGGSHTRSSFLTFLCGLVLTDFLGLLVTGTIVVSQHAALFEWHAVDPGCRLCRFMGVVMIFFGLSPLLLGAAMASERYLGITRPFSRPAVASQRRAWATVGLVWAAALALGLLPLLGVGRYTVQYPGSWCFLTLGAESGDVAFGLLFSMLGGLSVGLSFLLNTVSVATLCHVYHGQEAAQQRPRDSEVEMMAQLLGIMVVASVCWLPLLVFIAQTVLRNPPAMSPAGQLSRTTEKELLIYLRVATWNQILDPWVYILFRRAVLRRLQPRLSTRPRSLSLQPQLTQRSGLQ
Description: (§1) U.S. patent application Ser. No. 11/553,143, filed on Oct. 26, 2006, incorporated by reference herein, describes the methods used to obtain the in vitro data in Table 1 below.

EP3 = target: T2, EP3 (Homo sapiens, UniProt P43115); assay: Other receptors Ca2+ assay, EP3; type: cell-based; conditions: EP3 receptor
T2 sequence (P43115 1-390): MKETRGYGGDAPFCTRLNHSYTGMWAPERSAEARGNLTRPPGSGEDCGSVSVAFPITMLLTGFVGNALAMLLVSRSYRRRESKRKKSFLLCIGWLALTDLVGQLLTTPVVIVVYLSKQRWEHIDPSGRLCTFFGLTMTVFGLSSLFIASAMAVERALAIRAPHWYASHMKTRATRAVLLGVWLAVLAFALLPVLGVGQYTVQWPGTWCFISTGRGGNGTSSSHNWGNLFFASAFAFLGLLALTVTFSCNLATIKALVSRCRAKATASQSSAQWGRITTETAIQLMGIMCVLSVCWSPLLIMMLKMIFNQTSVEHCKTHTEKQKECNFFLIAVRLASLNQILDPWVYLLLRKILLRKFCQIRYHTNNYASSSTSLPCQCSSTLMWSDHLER
Description: as §1

DP = target: T3, DP (Homo sapiens, UniProt Q13258); assay: Other receptors Ca2+ assay, DP; type: cell-based; conditions: DP receptor
T3 sequence (Q13258 1-359): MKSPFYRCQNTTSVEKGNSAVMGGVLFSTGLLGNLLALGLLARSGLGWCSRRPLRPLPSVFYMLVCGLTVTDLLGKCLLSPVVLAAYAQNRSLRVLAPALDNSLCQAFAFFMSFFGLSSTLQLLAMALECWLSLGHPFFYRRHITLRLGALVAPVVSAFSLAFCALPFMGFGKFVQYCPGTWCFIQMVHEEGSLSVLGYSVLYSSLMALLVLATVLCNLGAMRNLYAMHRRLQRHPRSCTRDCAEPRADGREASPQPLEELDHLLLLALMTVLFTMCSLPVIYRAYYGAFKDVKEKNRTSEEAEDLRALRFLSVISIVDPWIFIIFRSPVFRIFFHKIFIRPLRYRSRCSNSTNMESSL
Description: as §1

EP4 [1] = target: T4, EP4 (Homo sapiens, UniProt P35408); assay: EP4 Ca2+ signal assay; type: cell-based
T4 sequence (P35408 whole entry): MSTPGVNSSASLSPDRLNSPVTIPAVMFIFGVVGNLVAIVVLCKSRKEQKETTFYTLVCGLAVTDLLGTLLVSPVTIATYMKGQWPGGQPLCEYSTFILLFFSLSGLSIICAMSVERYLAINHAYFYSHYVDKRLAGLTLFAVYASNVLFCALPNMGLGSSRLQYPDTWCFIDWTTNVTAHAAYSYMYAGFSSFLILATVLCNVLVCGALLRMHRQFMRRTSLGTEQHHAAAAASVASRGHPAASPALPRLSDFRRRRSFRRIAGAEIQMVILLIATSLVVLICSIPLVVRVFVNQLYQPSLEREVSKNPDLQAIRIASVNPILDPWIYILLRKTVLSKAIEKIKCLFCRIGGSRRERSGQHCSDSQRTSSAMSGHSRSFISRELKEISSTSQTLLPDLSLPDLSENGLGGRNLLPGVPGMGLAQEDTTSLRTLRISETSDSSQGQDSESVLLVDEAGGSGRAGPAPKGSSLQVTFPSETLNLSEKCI
Description: as §1

EP2 [2] = target: T5, EP2 (Homo sapiens, UniProt P43116); assay: EP2 binding (Ki)
T5 sequence (P43116 whole entry): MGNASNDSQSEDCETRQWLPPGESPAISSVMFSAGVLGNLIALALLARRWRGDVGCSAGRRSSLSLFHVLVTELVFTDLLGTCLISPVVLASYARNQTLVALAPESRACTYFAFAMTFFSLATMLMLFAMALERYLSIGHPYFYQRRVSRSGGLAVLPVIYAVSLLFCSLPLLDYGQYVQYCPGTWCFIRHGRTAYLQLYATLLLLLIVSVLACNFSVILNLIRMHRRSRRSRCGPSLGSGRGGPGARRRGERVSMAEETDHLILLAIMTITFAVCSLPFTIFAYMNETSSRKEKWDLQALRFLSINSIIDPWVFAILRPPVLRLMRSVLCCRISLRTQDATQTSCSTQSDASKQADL
Description: as §1

EP2 [3] = target: T5, EP2; assay: EP2 cAMP assay; type: cell-based
Description: as §1

EP1 = target: T6, EP1 (Homo sapiens, UniProt P34995); assay: Other receptors Ca2+ assay, EP1; type: cell-based; conditions: EP1 receptor
T6 sequence (P34995 1-402): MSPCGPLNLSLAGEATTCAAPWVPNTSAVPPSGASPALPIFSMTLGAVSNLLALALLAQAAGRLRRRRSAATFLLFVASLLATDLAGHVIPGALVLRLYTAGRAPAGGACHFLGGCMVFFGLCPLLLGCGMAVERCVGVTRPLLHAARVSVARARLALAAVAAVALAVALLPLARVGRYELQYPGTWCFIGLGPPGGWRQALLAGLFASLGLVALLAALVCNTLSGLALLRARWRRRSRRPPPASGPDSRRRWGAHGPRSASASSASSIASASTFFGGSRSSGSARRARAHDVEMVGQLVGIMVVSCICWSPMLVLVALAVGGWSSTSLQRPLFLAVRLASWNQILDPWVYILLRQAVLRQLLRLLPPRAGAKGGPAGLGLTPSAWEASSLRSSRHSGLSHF
Description: as §1

EP4 [4] = target: T4, EP4; assay: EP4 binding (Ki)
Description: as §1

EP2 [5] = target: T5, EP2; assay: EP2 Ca2+ signal assay; type: cell-based
Description: as §1

DOG [6] = assay: Dog intraocular pressure test; type: in vivo
Description: (§2) U.S. Pat. No. 7,091,231, incorporated by reference herein, describes the methods used to obtain the in vivo test results presented in Table 2.

MONKEY = assay: Monkey intraocular pressure test; type: in vivo
Description: as §2

DOG [7] = assay: Dog ocular hyperemia; type: in vivo
Description: as §2

FP = FP (Homo sapiens, UniProt P43088); assay: Other receptors Ca2+ assay, FP; type: cell-based; conditions: FP receptor
Sequence of FP (P43088 whole entry): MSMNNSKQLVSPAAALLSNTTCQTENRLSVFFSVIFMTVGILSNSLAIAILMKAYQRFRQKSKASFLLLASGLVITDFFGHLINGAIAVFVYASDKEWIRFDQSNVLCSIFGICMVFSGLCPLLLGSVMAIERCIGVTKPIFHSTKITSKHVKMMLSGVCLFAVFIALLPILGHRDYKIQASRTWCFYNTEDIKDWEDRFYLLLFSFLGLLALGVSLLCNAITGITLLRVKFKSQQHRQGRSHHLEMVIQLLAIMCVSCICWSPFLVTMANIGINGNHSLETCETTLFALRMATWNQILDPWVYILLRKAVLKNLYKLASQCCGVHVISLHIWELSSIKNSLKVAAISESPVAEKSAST
Description: as §1

IP = IP (Homo sapiens, UniProt P43119); assay: Other receptors Ca2+ assay, IP; type: cell-based; conditions: IP receptor
Sequence of IP (P43119 whole entry): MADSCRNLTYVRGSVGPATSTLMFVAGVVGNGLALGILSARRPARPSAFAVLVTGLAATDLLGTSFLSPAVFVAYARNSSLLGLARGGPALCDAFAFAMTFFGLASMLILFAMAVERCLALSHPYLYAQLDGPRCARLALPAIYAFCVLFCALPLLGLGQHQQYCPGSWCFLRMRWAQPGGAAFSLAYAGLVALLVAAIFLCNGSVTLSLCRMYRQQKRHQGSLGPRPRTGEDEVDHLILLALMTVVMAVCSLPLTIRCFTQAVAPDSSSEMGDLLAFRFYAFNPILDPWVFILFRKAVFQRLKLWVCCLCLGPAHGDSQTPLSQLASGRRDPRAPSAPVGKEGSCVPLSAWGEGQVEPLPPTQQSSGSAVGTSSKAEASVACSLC
Description: as §1

Compound | EC50 (TP) [nM] | EC50 (EP3) [nM] | EC50 (DP) [nM] | EC50 (EP4 [1]) [nM] | Ki (EP2 [2]) [nM] | EC50 (EP2 [3]) [nM] | EC50 (EP1) [nM] | Ki (EP4 [4]) [nM] | EC50 (EP2 [5]) [nM] | DOG Max. hyperemia (DOG [7]; Conc. 0.01 g/100 mL) | EC50 (FP) [nM] | EC50 (IP) [nM] | DOG Max. hyperemia (DOG [7]; Conc. .005% (g/100 mL)) | DOG Max. ΔIOP (DOG [6]; Conc. 0.01 g/100 mL) [%] | MONKEY Max. ΔIOP (MONKEY; Conc. 0.01 g/100 mL) [%] | DOG Max. ΔIOP (DOG [6]; Conc. .005% (g/100 mL)) [%] | MONKEY Max. ΔIOP (MONKEY; Conc. .005% (g/100 mL)) [%]
CCCCCC(O)/C=C/[C@@H]1[C@@H](CCCc2ccc(C(=O)O)s2)[C@H](Cl)C[C@H]1O (single isomer, unassigned) [Entry 15] | 178 | 6 | 10 | 0.2 | 7 | 0.4 | 1.3 | 4 | 0.8 |  |  |  |  |  |  |  | 
CCCCC[C@@H]1[C@@H](CCCc2ccc(C(=O)O)s2)[C@H](Cl)C[C@H]1O [Entry 1, 5-[3-((1R,2R,3R,5R)-5-Chloro-3-hydroxy-2-pentyl-cyclopentyl)-propyl]-thiophene-2-carboxylic acid] | 187 | 1740 | 2080 | 9100 | 6 | 1 |  |  | 74 |  |  |  |  |  |  |  | 
CCCCCC[C@@H]1[C@@H](CCCc2ccc(C(=O)O)s2)[C@H](Cl)C[C@H]1O [Entry 2, 5-[3-((1R,2R,3R,5R)-5-Chloro-2-hexyl-3-hydroxy-cyclopentyl)-propyl]-thiophene-2-carboxylic acid] | 2990 | 5990 | 1780 | 9380 | 4 | 0.7 |  | 754 | 405 |  |  |  |  |  |  |  | 
CCCCCCC[C@@H]1[C@@H](CCCc2ccc(C(=O)O)s2)[C@H](Cl)C[C@H]1O [Entry 3, 5-[3-((1R,2R,3R,5R)-5-Chloro-2-heptyl-3-hydroxy-cyclopentyl)-propyl]-thiophene-2-carboxylic acid] | ≥ 10000 | 6660 | 2250 | 7510 | 3 | 2 | 3390 | 330 | 67 |  | ≥ 10000 | > 10000 |  |  |  |  | 
CCCCCCCC[C@@H]1[C@@H](CCCc2ccc(C(=O)O)s2)[C@H](Cl)C[C@H]1O [Entry 4, 5-[3-((1R,2R,3R,5R)-5-Chloro-3-hydroxy-2-octyl-cyclopentyl)-propyl]-thiophene-2-carboxylic acid] |  | 9530 | 6770 | 11400 | 0.5 | 0.4 | 18200 | 395 | 11 | 1.3 |  |  |  | 40 | 31 |  | 
CCCC=C[C@@H]1[C@@H](CCCc2ccc(C(=O)O)s2)[C@H](Cl)C[C@H]1O [Entry 7, 5-[3-((1R,2R,3R,5R)-5-Chloro-3-hydroxy-2-pent-1-enyl-cyclopentyl)-propyl]-thiophene-2-carboxylic acid] | 249 | 1160 | 573 | 14800 | 60 | 55 |  |  | 303 |  |  |  |  |  |  |  | 
CCCCCC=C[C@@H]1[C@@H](CCCc2ccc(C(=O)O)s2)[C@H](Cl)C[C@H]1O [Entry 8, 5-[3-((1R,2R,3R,5R)-5-Chloro-2-hept-1-enyl-3-hydroxy-cyclopentyl)-propyl]-thiophene-2-carboxylic acid] | 230 | 544 | 337 | 9100 | 14 | 8 |  | 186 | 112 |  |  |  |  |  |  |  | 
C=CCCCCCC[C@@H]1[C@@H](CCCc2ccc(C(=O)O)s2)[C@H](Cl)C[C@H]1O [Entry 12, 5-[3-((1R,2R,3R,5R)-5-Chloro-3-hydroxy-2-oct-7-enyl-cyclopentyl)-propyl]-thiophene-2-carboxylic acid] | 10300 | 4990 | 3210 | 6470 | 3 | 0.2 | 883 | 351 | 7 |  | 7570 |  |  |  |  |  | 

Continued, in another order:

EC50 (TP) [nM] | EC50 (EP3) [nM] | EC50 (DP) [nM] | EC50 (EP4 [1]) [nM] | Ki (EP2 [2]) [nM] | EC50 (EP2 [3]) [nM] | EC50 (EP1) [nM] | Ki (EP4 [4]) [nM] | EC50 (EP2 [5]) [nM] | DOG Max. hyperemia (DOG [7]; Conc. 0.01 g/100 mL) | EC50 (FP) [nM] | EC50 (IP) [nM] | DOG Max. hyperemia (DOG [7]; Conc. .005% (g/100 mL)) | Compound | DOG Max. ΔIOP (DOG [6]; Conc. 0.01 g/100 mL) [%] | MONKEY Max. ΔIOP (MONKEY; Conc. 0.01 g/100 mL) [%] | DOG Max. ΔIOP (DOG [6]; Conc. .005% (g/100 mL)) [%] | MONKEY Max. ΔIOP (MONKEY; Conc. .005% (g/100 mL)) [%]
 |  |  |  |  |  |  |  |  | 2.0 |  |  |  | CCCCCCCC[C@@H]1[C@@H](CCCc2ccc(C(=O)OCCO)s2)[C@H](Cl)C[C@H]1O [Entry 1-8, 5-[3-((1R,2R,3R,5R)-5-Chloro-3-hydroxy-2-octyl-cyclopentyl)-propyl]-thiophene-2-carboxylic acid 2-hydroxy-ethyl ester] | 35 | 53 |  | 
 |  |  |  |  |  |  |  |  | 0.9 |  |  |  | CCCCCCCC[C@@H]1[C@@H](CCCc2ccc(C(=O)OC(C)C)s2)[C@H](Cl)C[C@H]1O [Entry 1-9] | 22 |  |  | 
 |  |  |  |  |  |  |  |  |  |  |  | 2.4 | CCCCCCCC[C@@H]1[C@@H](CCSc2nc(C(=O)O)cs2)[C@H](Cl)C[C@H]1O [Entry 6-8, 2-(2-((1R,2R,3R,5R)-5-chloro-3-hydroxy-2-octylcyclopentyl)ethylthio)thiazole-4-carboxylic acid] |  |  | 44 | 56
